Measured values taken from PubChem BioAssay (NCI).
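Each compound was tested at five concentrations against cells in 96-well plates for 48 hours. TGI is the concentration that stops growth completely.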

Key:
Assay in all cases: DTP human tumour cell line panel, 48 h
786-0 renal = test system: 786-0 renal
A549 NSCLC = test system: A549 NSCLC
ACHN renal = test system: ACHN renal
BT-549 breast = test system: BT-549 breast
CCRF-CEM leukemia = test system: CCRF-CEM leukemia
COLO 205 colon = test system: COLO 205 colon
DU-145 prostate = test system: DU-145 prostate
HCT-116 colon = test system: HCT-116 colon
HCT-15 colon = test system: HCT-15 colon
HL-60(TB) leukemia = test system: HL-60(TB) leukemia
HOP-62 NSCLC = test system: HOP-62 NSCLC
HOP-92 NSCLC = test system: HOP-92 NSCLC
HS 578T breast = test system: HS 578T breast
HT29 colon = test system: HT29 colon
IGROV1 ovarian = test system: IGROV1 ovarian
K-562 leukemia = test system: K-562 leukemia
KM12 colon = test system: KM12 colon
LOX IMVI melanoma = test system: LOX IMVI melanoma
M14 melanoma = test system: M14 melanoma
MALME-3M melanoma = test system: MALME-3M melanoma
MCF7 breast = test system: MCF7 breast
MDA-MB-231 breast = test system: MDA-MB-231 breast
MDA-N = test system: MDA-N
MOLT-4 leukemia = test system: MOLT-4 leukemia
NCI-H23 lung = test system: NCI-H23 lung
NCI-H460 lung = test system: NCI-H460 lung
NCI-H522 lung = test system: NCI-H522 lung
NCI/ADR-RES ovarian = test system: NCI/ADR-RES ovarian
OVCAR-4 ovarian = test system: OVCAR-4 ovarian
OVCAR-5 ovarian = test system: OVCAR-5 ovarian
OVCAR-8 ovarian = test system: OVCAR-8 ovarian
PC-3 prostate = test system: PC-3 prostate
RPMI-8226 leukemia = test system: RPMI-8226 leukemia
RXF 393 renal = test system: RXF 393 renal
SF-268 CNS = test system: SF-268 CNS
SF-295 CNS = test system: SF-295 CNS
SF-539 CNS = test system: SF-539 CNS
SK-MEL-2 melanoma = test system: SK-MEL-2 melanoma
SK-MEL-28 melanoma = test system: SK-MEL-28 melanoma
SK-MEL-5 melanoma = test system: SK-MEL-5 melanoma
SK-OV-3 ovarian = test system: SK-OV-3 ovarian
SN12C renal = test system: SN12C renal
SNB-19 CNS = test system: SNB-19 CNS
SNB-75 CNS = test system: SNB-75 CNS
SR leukemia = test system: SR leukemia
SW-620 colon = test system: SW-620 colon
T-47D breast = test system: T-47D breast
TK-10 renal = test system: TK-10 renal
U251 CNS = test system: U251 CNS
UACC-257 melanoma = test system: UACC-257 melanoma
UACC-62 melanoma = test system: UACC-62 melanoma
UO-31 renal = test system: UO-31 renal
A498 renal = test system: A498 renal
CAKI-1 renal = test system: CAKI-1 renal
EKVX NSCLC = test system: EKVX NSCLC
HCC-2998 colon = test system: HCC-2998 colon
NCI-H226 lung = test system: NCI-H226 lung
OVCAR-3 ovarian = test system: OVCAR-3 ovarian
MDA-MB-435 = test system: MDA-MB-435

Measured: TGI

Cc1ccc(S(=O)(=O)NC(=O)NC(CO)C(=O)O)cc1 (centres undefined)
not listed: A498 renal | CAKI-1 renal | EKVX NSCLC | HCC-2998 colon | NCI-H226 lung | OVCAR-3 ovarian | MDA-MB-435
> 100 µM: all other assays above

CCCCCCCCCCCCCCCC(=O)ON1C(=S)NC(C)(c2ccccc2)C1=S (centres undefined)
80.1 µM: M14 melanoma
not listed: NCI-H522 lung | SK-MEL-28 melanoma | SR leukemia | SW-620 colon | U251 CNS | MDA-MB-435
> 100 µM: all other assays above

CSc1c(C(=O)Nc2ccc(C)cc2)c(N)nn1-c1ccccc1
42.9 µM: NCI-H460 lung
92.1 µM: SF-539 CNS
75.1 µM: A498 renal
88.1 µM: HOP-92 NSCLC
45 µM: 786-0 renal
75.3 µM: RXF 393 renal
75.7 µM: MALME-3M melanoma
49.9 µM: CAKI-1 renal
not listed: KM12 colon | NCI/ADR-RES ovarian | OVCAR-8 ovarian | SNB-75 CNS
> 100 µM: all other assays above

O=[N+]([O-])c1cccc(N=C2c3ccccc3CN2c2cccc([N+](=O)[O-])c2)c1
73.5 µM: SNB-75 CNS
not listed: CCRF-CEM leukemia | HL-60(TB) leukemia | MALME-3M melanoma | NCI/ADR-RES ovarian | SR leukemia
> 100 µM: all other assays above

CC(=O)OCC1OC(Nc2ccc3nc(C)n(-c4cccc(C)c4)c(=O)c3c2)C(OC(C)=O)C(OC(C)=O)C1OC(C)=O (centres undefined)
not listed: A549 NSCLC | CCRF-CEM leukemia | HOP-92 NSCLC | M14 melanoma | SF-539 CNS | SK-OV-3 ovarian
> 62.5 µM: all other assays above

CN1CCN(c2nc3ccccc3nc2C(=O)c2ccc(Cl)cc2)CC1
52.7 µM: SK-MEL-5 melanoma
80.2 µM: NCI-H460 lung
62.8 µM: M14 melanoma
99.7 µM: HCC-2998 colon
98 µM: HL-60(TB) leukemia
77.4 µM: RPMI-8226 leukemia
76.2 µM: UACC-62 melanoma
77.3 µM: RXF 393 renal
48.1 µM: MALME-3M melanoma
not listed: BT-549 breast | MDA-MB-231 breast | SN12C renal | NCI-H226 lung
> 100 µM: all other assays above

COc1ccc2c(c1)c1nn(CCN(C)C)c3ccc4c(=O)n(CCN(C)C)c(=O)n2c4c13
0.555 µM: MALME-3M melanoma
0.34 µM: HL-60(TB) leukemia
0.198 µM: MCF7 breast
1.77 µM: SF-539 CNS
0.0778 µM: SNB-75 CNS
0.717 µM: UACC-257 melanoma
0.635 µM: SNB-19 CNS
0.173 µM: HCT-15 colon
1.1 µM: NCI-H226 lung
0.448 µM: K-562 leukemia
0.277 µM: NCI/ADR-RES ovarian
0.784 µM: SK-MEL-5 melanoma
0.0522 µM: SR leukemia
0.603 µM: DU-145 prostate
0.262 µM: PC-3 prostate
< 0.0192 µM: RPMI-8226 leukemia
0.0546 µM: HCC-2998 colon
0.44 µM: OVCAR-5 ovarian
0.405 µM: EKVX NSCLC
0.324 µM: M14 melanoma
0.0747 µM: NCI-H522 lung
0.304 µM: SK-OV-3 ovarian
0.136 µM: 786-0 renal
> 25.8 µM: T-47D breast
1.69 µM: U251 CNS
0.355 µM: SW-620 colon
0.329 µM: UO-31 renal
0.432 µM: ACHN renal
0.186 µM: MDA-N
0.175 µM: OVCAR-8 ovarian
0.182 µM: COLO 205 colon
0.192 µM: SK-MEL-2 melanoma
0.217 µM: HOP-62 NSCLC
0.255 µM: OVCAR-3 ovarian
0.197 µM: MOLT-4 leukemia
0.26 µM: MDA-MB-231 breast
0.526 µM: A498 renal
0.0759 µM: A549 NSCLC
2.6 µM: BT-549 breast
0.601 µM: CAKI-1 renal
0.517 µM: SN12C renal
0.481 µM: KM12 colon
0.696 µM: TK-10 renal
0.469 µM: LOX IMVI melanoma
0.244 µM: HS 578T breast
0.474 µM: UACC-62 melanoma
0.107 µM: CCRF-CEM leukemia
0.0645 µM: OVCAR-4 ovarian
1.65 µM: IGROV1 ovarian
0.211 µM: SF-268 CNS
0.224 µM: SF-295 CNS
0.38 µM: RXF 393 renal
0.854 µM: SK-MEL-28 melanoma
0.166 µM: MDA-MB-435
0.294 µM: HCT-116 colon
0.0142 µM: NCI-H460 lung
0.231 µM: NCI-H23 lung
